We go through one compound from ChEMBL document CHEMBL1151372, “Isoiguesterin, a new antileukemic bisnortriterpene from Salacia madagascariensis” (1981).

What all share (format): functional
For experiment [1], the system named is P388. The experiment can be described thus: In vivo antitumor activity against mouse P388 cells at 1 mg/kg relative to control.
Experiment [2] has as its system P388. The experiment can be described thus: In vivo antitumor activity against mouse P388 cells at 0.75 mg/kg relative to control.
Experiment [3] deals with KB. Kind of experiment: Cytotoxicity against human KB cells. The settings on record: read-out: ED50 (the source's name).

The structures appear in SMILES notation. Values after ≈ are worked out from the molar mass of the structure shown.

On to `C=C1CC[C@]2(C)CC[C@]3(C)C4=CC=C5C(=CC(=O)C(O)=C5C)[C@]4(C)CC[C@@]3(C)[C@@H]2C1` [ISOIGUESTERIN], for which the T/C (in general, the result in the treated group divided by that in the control group, in per cent) turned out to be 147% in experiment [1] and 125% in experiment [2]. Moreover, the EC50 in experiment [3] is 0.24 µg/mL (≈ 0.593 µM).
